Measurements reported in DBAASP.
Converted amounts (≈) assume the structure as drawn. “And” between values parts separate entries of the source, which are not always exact repeats. Identical values can stand only once.

Experiments:
Assay in all cases: ≥ marks a high value that may be exact or a test limit, other limits are often not marked, values filed in µg/mL are converted to µM
[1] = system: Enterococcus faecalis ATCC 29212
[2] = system: Escherichia coli ATCC 25922
Escherichia coli = system: Escherichia coli
Pseudomonas aeruginosa = system: Pseudomonas aeruginosa
Staphylococcus aureus = system: Staphylococcus aureus
[3] = system: Candida albicans ATCC 90028
[4] = system: Pseudomonas aeruginosa ATCC 27853
[5] = system: Staphylococcus aureus ATCC 29213
[6] = system: Salmonella enterica subsp. enterica serovar Typhimurium ATCC 14028
[7] = system: Pseudomonas aeruginosa PAO1

CSCC[C@H](NC(=O)[C@H](CCCN=C(N)N)NC(=O)[C@H](Cc1c[nH]c2ccccc12)NC(=O)[C@H](CCC(N)=O)NC(=O)[C@H](Cc1c[nH]c2ccccc12)NC(=O)[C@H](CC(C)C)NC(=O)[C@H](CC(C)C)NC(=O)[C@H](C)NC(=O)[C@H](CCCCN)NC(=O)[C@@H](N)Cc1ccccc1)C(=O)O [FKALLWQWRM]
MIC [1]: 145 µM (≈ 200 µg/mL)
MIC [2]: 145 µM (≈ 200 µg/mL)

CSCC[C@H](NC(=O)[C@H](CCCN=C(N)N)NC(=O)[C@H](Cc1c[nH]c2ccccc12)NC(=O)[C@H](CCC(N)=O)NC(=O)[C@H](Cc1c[nH]c2ccccc12)NC(=O)[C@H](CC(C)C)NC(=O)[C@H](CCCN=C(N)N)NC(=O)[C@H](C)NC(=O)[C@H](CCCCN)NC(=O)[C@@H](N)Cc1ccccc1)C(=O)O [FKARLWQWRM]
MIC [1]: 141 µM (≈ 200 µg/mL)
MIC [2]: 70.4 µM (≈ 100 µg/mL)

CC(C)C[C@H](NC(=O)[C@H](C)NC(=O)[C@@H](N)CCCCN)C(=O)N[C@@H](C)C(=O)N[C@@H](C)C(=O)N[C@@H](CC(C)C)C(=O)N[C@@H](CC(C)C)C(=O)N[C@@H](CCCCN)C(=O)N[C@@H](CCCCN)C(=O)N[C@@H](Cc1c[nH]c2ccccc12)C(=O)N[C@@H](C)C(=O)N[C@@H](CCCCN)C(=O)N[C@@H](CC(C)C)C(=O)N[C@@H](CC(C)C)C(=O)N[C@@H](C)C(=O)N[C@@H](C)C(=O)N[C@@H](CC(C)C)C(=O)N[C@@H](CCCCN)C(N)=O [KALAALLKKWAKLLAALK]
MIC (Escherichia coli): 4.1 µM (≈ 8 µg/mL)
MIC (Pseudomonas aeruginosa): 5.8 µM (≈ 11.3 µg/mL)
MIC (Staphylococcus aureus): 3 µM (≈ 5.85 µg/mL)

CC(C)C[C@H](NC(=O)[C@H](C)NC(=O)[C@H](CCCCN)NC(=O)[C@H](CC(C)C)NC(=O)[C@H](CC(C)C)NC(=O)[C@H](Cc1c[nH]c2ccccc12)NC(=O)[C@H](CCCCN)NC(=O)[C@H](CC(C)C)NC(=O)[C@H](C)NC(=O)[C@H](C)NC(=O)[C@H](CCCCN)NC(=O)[C@H](C)NC(=O)[C@H](CC(C)C)NC(=O)[C@H](CC(C)C)NC(=O)[C@@H](N)CCCCN)C(=O)N[C@@H](CCCCN)C(=O)N[C@@H](C)C(=O)N[C@@H](C)C(N)=O [KLLAKAALKWLLKALKAA]
MIC (Escherichia coli): 6.2 µM (≈ 12.1 µg/mL)
MIC (Pseudomonas aeruginosa): 12.4 µM (≈ 24.2 µg/mL)
MIC (Staphylococcus aureus): 1.6 µM (≈ 3.12 µg/mL)

CC[C@H](C)[C@H](NC(=O)[C@H](CCCN=C(N)N)NC(=O)[C@H](C)NC(=O)[C@@H](NC(=O)[C@@H](NC(=O)[C@H](CCCN=C(N)N)NC(=O)[C@@H](N)CCCCN)[C@@H](C)CC)C(C)C)C(=O)N[C@@H](CCCCN)C(=O)N[C@@H](CC(=O)O)C(=O)N[C@@H](Cc1ccccc1)C(=O)N[C@@H](CC(C)C)C(=O)N[C@@H](CCCN=C(N)N)C(=O)O [KRIVARIKDFLR]
MIC [3]: 20 µM (≈ 30.3 µg/mL)
MIC [2]: 5 µM (≈ 7.57 µg/mL)
MIC [4]: 5 µM (≈ 7.57 µg/mL)
MIC [5]: 20 µM (≈ 30.3 µg/mL)

CC[C@H](C)[C@H](NC(=O)[C@H](CCCN=C(N)N)NC(=O)[C@H](C)NC(=O)[C@H](CC(N)=O)NC(=O)[C@H](CCCCN)NC(=O)[C@@H](N)CC(C)C)C(=O)N[C@H](C(=O)NCC(=O)N[C@@H](CCC(=O)O)C(=O)N[C@@H](CC(C)C)C(=O)N[C@H](C(=O)NCC(=O)N[C@@H](Cc1ccccc1)C(=O)N[C@@H](CCCN=C(N)N)C(=O)N1CCC[C@H]1C(=O)N[C@H](C(=O)N[C@@H](CCCN=C(N)N)C(=O)N1CCC[C@H]1C(=O)N[C@@H](CCC(N)=O)C(=O)N[C@H](C(=O)N[C@@H](CCCN=C(N)N)C(=O)N[C@@H](CC(C)C)C(=O)N[C@@H](CCC(=O)O)C(=O)O)C(C)C)C(C)C)[C@@H](C)O)C(C)C [LKNARIVGELTGFRPVRPQVRLE]
MIC [1]: 12.5 µM (≈ 33.1 µg/mL)
MIC [2]: 12.5 µM (≈ 33.1 µg/mL)
MIC [6]: 25 µM (≈ 66.2 µg/mL)

CC(C)C[C@H](NC(=O)[C@H](CCCN=C(N)N)NC(=O)[C@@H](N)CCCN=C(N)N)C(=O)N[C@@H](CCCN=C(N)N)C(=O)N1CCC[C@H]1C(=O)N[C@@H](CCCN=C(N)N)C(=O)N[C@@H](CCCN=C(N)N)C(=O)N1CCC[C@H]1C(=O)N[C@@H](CCCN=C(N)N)C(=O)N[C@@H](CC(C)C)C(=O)N1CCC[C@H]1C(=O)N[C@@H](CCCN=C(N)N)C(=O)N1CCC[C@H]1C(=O)N[C@@H](CCCN=C(N)N)C(=O)N1CCC[C@H]1C(=O)N[C@@H](CCCN=C(N)N)C(=O)O [RRLRPRRPRLPRPRPR]
MIC [1]: > 32 µM
MIC [7]: 16 µM and 32 µM
MIC [5]: > 32 µM
